This is an account of results in paper PMC5906549, “Cathelicidin-Derived Antimicrobial Peptides Inhibit Zika Virus Through Direct Inactivation and Interferon Pathway” (Frontiers in Immunology, 2018).

Peptide text beside a SMILES is read from it.

Data set [1] concerns ZIKV strain MR766. The data set can be described thus: ZIKV RNA in infected Vero cells, peptide pre-treatment (real-time RT-PCR). It counts as cell-based, Zika virus. The following applies: for ZIKV RNA compared with untreated controls: peptide 2 µM, 2 h before ZIKV MOI 0.5, re-treated at 24 h, 48-h post-infection, RT-PCR normalized to GAPDH, N = 3. The method, then: (§1) Human fetal astrocytes were derived from a single-cell isolation process of fetal brain tissues as previously described ([25], [26]). Briefly, dissociated brain tissue was incubated with 0.25% trypsin for 30 min, followed by neutralization with 10% fetal bovine serum (FBS), and further dissociated by trituration. The single-cell suspension was cultured as adherent cells in DMEM/F12 (Thermo Fisher Scientific, Waltham, MA, USA), supplemented with 10% FBS, penicillin (50 units/mL), and streptomycin (50 µg/mL) (Thermo Fisher Scientific). […] Vero cells (ATCC, CCL-81), an African green monkey kidney cell line, were maintained in Dulbecco’s Modified Eagle Medium (DMEM) with 5% FBS. Experiments with ZIKV were performed exclusively inside a BioSafety Level 2 (laboratory). All procedures utilized in this study were approved by the Institutional Biosafety Committee (IBC 16-05-013BL2) and followed biosafety level II practices as shown in National Institutes of health (NIH) Guideline Appendix G-II-B. ZIKV strain MR766 (Uganda, 1947) was obtained from ZeptoMetrix Corp., Buffalo, NY, USA, and propagated in Vero cells. ZIKV infection of the Vero cells and fetal astrocytes was previously characterized ([27]) and all infections in the current studies were at the MOI of 0.5.
(§2) Total mRNA was isolated with TRIzol Reagent (Thermo Fisher Scientific) and RNeasy Mini Kit (QIAGEN Inc., Valencia, CA, USA) following the manufacturer’s recommendations. Two real-time RT-PCR methods were used for the current studies. First, SYBR Green-based RT-PCR assay was used to determine intracellular ZIKV RNA in Vero cells. For this assay, reverse transcription was performed using Verso cDNA synthesis Kit (Thermo Fisher Scientific) and 1 µg of total RNA in a 15-µL final volume. The RT-PCR analyses were performed using 7.5-µL SYBR Green PCR Master Mix (Thermo Fisher Scientific) with 0.5-µL cDNA, 1.5-µL H2O, 5.5-µL oligonucleotide primer pairs at 10 µM. […] GG-3. PCR program: 1, 50°C for 2 min; 2, 95°C for 2 min; 3, 95°C for 15 s; 4, specific annealing temperature for 15 s; 5, 72°C for 1 min. Steps 2–4 were repeated 40 times. All samples were amplified in triplicate for analysis. Relative ZIKV RNA levels were determined and standardized with a GAPDH internal control using comparative ΔΔCT method ([35]). Second, TaqMan-based RT-PCR assay was used to determine intracellular ZIKV RNA and other gene expressions in Figures 3–6 and extracellular ZIKV RNA in Figure 3. The TaqMan assay was performed in a StepOne^TM Real-Time PCR system (Thermo Fisher Scientific). Primers used for TaqMan real-time RT-PCR were all from the Thermo Fisher Scientific, which included ZIKV (forward sequence: 5-[…]-3, reverse sequence: 5- […]-3, and probe sequence: 5′-[…]-3), IFN-α2 (Hs00265051_s1), IFN-β1 (Hs01077958_s1), eukaryotic 18-s rRNA (Hs99999901_s1), β-actin (Hs99999903_m1), and GAPDH (Catalog number: 4310884E). Relative ZIKV mRNA levels were determined and standardized with a GAPDH or 18-s rRNA endogenous control using comparative ΔΔCT method ([35]). […] For ZIKV in supernatants, RNA was extracted from the supernatants through TRIzol™ LS Reagent (Thermo Fisher Scientific, 10296028) following the manufacturer’s manual. […] Quantitative genomic RNA from ZIKV (NR-1838DQ, ATCC) was used as a standard to calculate viral copies.
Background: In qPCR the cycle at which signal appears reflects the starting amount.

A further data set can be described thus: in vitro. The following applies: African green monkey. The method, then:
(§3) Cell viability was examined by the CellTiter 96 ®Aqueous One Solution Cell Proliferation Assay (Promega, Madison, WI, USA). Vero cells and astrocytes were seeded into 96-well tissue culture plates (Fisher Scientific) and treated with fresh growth medium containing different concentrations of each peptide for 2 or 4 days at 37°C. At the experimental end point, MTS [3-(4,5-dimethylthiazol-2-yl)-5-(3-carboxymethoxyphenyl)-2-(4-sulfophenyl)-2H-tetrazolium] was added to the cultures and incubated for 1 h. The absorbance at 490 nm was recorded through BioTek Gen5 data analysis software (Winooski), VT, optical density (OD) values were used as a representation of cell viability.
(§4) (A) Vero cells were treated with doses of peptides ranging from 1 to 50 µM. After 24 h, the cultures were washed and treated with same doses of peptides in fresh medium for another 24 h. Cell viability was determined by a colorimetric MTS assay. Results shown are the averages ±SD of experiments performed in triplicate. Data were analyzed by non-linear regression. The EC50 was assessed for each of the antimicrobial peptides. (B) Vero cells were treated with doses of peptides ranging from 0.4 to 10 µM for 2 h then infected with ZIKV at the MOI of 0.5. After 24 h, the cultures were washed and treated with same doses of peptides in fresh medium for another 24 h. ZIKA RNA was detected in total cellular RNA through real-time RT-PCR. Data were normalized to GAPDH and presented as fold change (in log scale) compared with ZIKV group. ** p < 0.01 and *** p < 0.001, as compared with the ZIKV group without the peptide treatment (ANOVA, N = 3).
(§5) A, B) Vero cells were treated with 10 µM AMPs for 2 days or 4 days as outlined in the figure. For 4-day treatment, Vero cells were repeatedly treated with 10 µM AMPs at 2-day post-treatment. At the experimental end point, cell viability was determined by a colorimetric MTS assay CellTiter 96® AQueous One Solution Assay (Promega, Madison, WI) based on the manufacture’s instruction. Results were normalized as percentage of cell viability in control astrocytes. CTL, control. * denotes p < 0.05, ** denotes p < 0.01, *** denotes p < 0.001 as compared to the control group without peptide treatment (ANOVA, N = 3).

The test system of another data set is Vero cells. Briefly: in vitro. As to the method:
as §3, §4, §5

Data set [2] has as its system ZIKV strain MR766. Briefly: Intracellular ZIKV RNA in infected human fetal astrocytes, peptide pre-treatment (real-time RT-PCR). It is filed as cell-based, Zika virus. The following applies: for Reduction of ZIKV RNA levels: astrocytes, 10 µM, at 48 h; for Intracellular ZIKV RNA, % of the untreated ZIKV group / Dose dependence of intracellular ZIKV RNA decrease: human fetal astrocytes, 48 h; for Intracellular ZIKV RNA, % of the untreated ZIKV group: 2 h pre-treatment, ZIKV MOI 0.5, re-treated at 24 h, normalized to GAPDH, N = 3; for Dose dependence of intracellular ZIKV RNA decrease: pre-treatment 0.4 to 10 µM, ZIKV MOI 0.5. As to the method: as §1, §2

A further data set has as its system IFN-α2. The data set can be described thus: IFN-α2 expression in human fetal astrocytes (real-time RT-PCR). It is filed as cell-based. The following applies: for IFN-α2 expression in ZIKV-infected fetal astrocytes: ZIKV MOI 0.5, AMPs 0.4 to 10 µM, 48 h; for IFN-α2 expression in ZIKV-infected fetal astrocytes / IFN-α2 expression in uninfected fetal astrocytes: normalized to 18-s rRNA, N = 3; for IFN-α2 expression in uninfected fetal astrocytes: AMP treatment 48 h. The method, then:
as §2

Setting [3] is: uninfected human fetal astrocytes.

For `CC[C@H](C)[C@H](NC(=O)[C@H](CCCCN)NC(=O)[C@H](CCCCN)NC(=O)[C@H](Cc1ccccc1)NC(=O)[C@H](CC(C)C)NC(=O)[C@H](CCCCN)NC(=O)[C@H](CCCCN)NC(=O)[C@H](Cc1ccccc1)NC(=O)[C@H](CCCCN)NC(=O)[C@H](CCCCN)NC(=O)[C@H](CCCNC(=N)N)NC(=O)[C@H](Cc1ccccc1)NC(=O)[C@H](CCCNC(=N)N)NC(=O)[C@H](CCCCN)NC(=O)[C@H](Cc1ccccc1)NC(=O)[C@H](CCCNC(=N)N)NC(=O)CN)C(=O)N[C@@H](CO)C(=O)O` [BMAP-18] (H-GRFKRFRKKFKKLFKKIS-OH; N-terminus and C-terminus assumed), the “ZIKV RNA compared with untreated controls” value with ZIKV strain MR766 [1] is “significantly decreased ZIKV RNA”. This molecule also had an EC50 at 48 h in the data set “in vitro” of over 50 µM. Moreover, the “Cytotoxicity to Vero cells at 10 µM” value with Vero cells is listed as “minimal cytotoxicity”. For the same molecule, in the data set on ZIKV strain MR766 [2], the “Reduction of ZIKV RNA levels” value was over 95%. In addition, the results for the “Intracellular ZIKV RNA, % of the untreated ZIKV group” value (from here on “Intracellular ZIKV RNA, %”) in the data set with ZIKV strain MR766 [2] (peptide 2 µM) and in the data set with ZIKV strain MR766 [2] (peptide 10 µM) were 15% and 4%, respectively. In addition, the “Dose dependence of intracellular ZIKV RNA decrease” value with ZIKV strain MR766 [2] is listed as “decreased intracellular ZIKV RNA in a dose-dependent manner”. Besides, the “IFN-α2 expression in ZIKV-infected fetal astrocytes” value in the data set with IFN-α2 is reported as “significantly increased IFN-α2 expression levels in a dose-dependent manner”. For the same molecule, the “Increase of IFN-α2 expression in uninfected fetal astrocytes” value in the data set on IFN-α2 (uninfected human fetal astrocytes, difference not statistically significant) worked out at 7 folds.
As to `CC[C@H](C)[C@H](NC(=O)[C@H](CCCNC(=N)N)NC(=O)[C@H](CCC(N)=O)NC(=O)[C@@H](NC(=O)[C@@H](NC(=O)[C@H](CCCNC(=N)N)NC(=O)[C@H](CCCCN)NC(=O)[C@H](Cc1ccccc1)NC(=O)CN)[C@@H](C)CC)C(C)C)C(=O)N[C@@H](CCCCN)C(=O)N[C@@H](CC(=O)O)C(=O)N[C@@H](Cc1ccccc1)C(=O)N[C@@H](CC(C)C)C(=O)N[C@@H](CCCNC(=N)N)C(=O)N[C@@H](CC(N)=O)C(=O)N[C@@H](CC(C)C)C(=O)N[C@H](C(N)=O)C(C)C` [GF-17] (H-GFKRIVQRIKDFLRNLV-NH2; N-terminus and C-terminus assumed), in the data set on ZIKV strain MR766 [1], the “ZIKV RNA compared with untreated controls” value was “significantly decreased ZIKV RNA”. In the data set “in vitro”, the EC50 at 48 h is over 50 µM. Besides, the “Cytotoxicity to Vero cells at 10 µM” value in the data set with Vero cells was “minimal cytotoxicity”. For the same molecule, in the data set on ZIKV strain MR766 [2], the “Reduction of ZIKV RNA levels” value was “over 99%” and the “Dose dependence of intracellular ZIKV RNA decrease” value is given as “decreased intracellular ZIKV RNA in a dose-dependent manner”. Further, the “Intracellular ZIKV RNA, %” value in the data set with ZIKV strain MR766 [2] (peptide 2 µM) amounted to 46%. Moreover, the “Intracellular ZIKV RNA, %” value in the data set with ZIKV strain MR766 [2] (peptide 10 µM) came out at 1%. The “IFN-α2 expression in ZIKV-infected fetal astrocytes” value in the data set with IFN-α2 is listed as “significantly increased IFN-α2 expression levels in a dose-dependent manner”. The “IFN-α2 expression in uninfected fetal astrocytes” value with IFN-α2 (setting [3]) was “significantly increased IFN-α2 expression”.
As for `CC[C@H](C)[C@H](NC(=O)[C@H](CCCNC(=N)N)NC(=O)[C@H](CCC(N)=O)NC(=O)[C@@H](NC(=O)[C@@H](NC(=O)[C@@H](N)CCCNC(=N)N)[C@@H](C)CC)C(C)C)C(=O)N[C@@H](CCCCN)C(=O)N[C@@H](CC(=O)O)C(=O)N[C@@H](Cc1ccccc1)C(=O)N[C@@H](CC(C)C)C(=O)O` [RI-10, reference compound] (H-RIVQRIKDFL-OH; N-terminus and C-terminus assumed), the “Dose dependence of ZIKV RNA decrease” value in the data set with ZIKV strain MR766 [1] (peptide 0.4, 2 and 10 µM, ZIKV MOI 0.5, 48-h post-infection) is recorded as “except RI-10 showed dose-dependent decrease of ZIKV RNA”. In addition, the EC50 at 48 h in “in vitro” is over 50 µM. In the data set with Vero cells, the “Cytotoxicity to Vero cells at 10 µM” value was “minimal cytotoxicity”. Moreover, the “Dose dependence of intracellular ZIKV RNA decrease” value with ZIKV strain MR766 [2] is recorded as “but not RI-10, decreased intracellular ZIKV RNA”. Further, in the data set with IFN-α2, the “IFN-α2 expression in ZIKV-infected fetal astrocytes” value is reported as “but not RI-10, significantly increased IFN-α2 expression levels”. Besides, the “IFN-α2 expression in uninfected fetal astrocytes” value in the data set with IFN-α2 (setting [3]) is “did not affect the expression levels of IFN-α2”.

Broadly, the EC50 is the concentration giving half of the maximal effect.
